Reference: ChEMBL document CHEMBL1201862, “PubChem BioAssay data set” (2004)
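All cell lines were grown in 96-well plates and treated with compound for 48 hours. GI50 marks 50% less growth.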 The source made the active and inactive calls. Cut-off read from the data, not from the text of the source: active = GI50 up to about 1.1 µM and inactive = higher.

Key:
Experiment in all cases: NCI tumour cell line growth inhibition, 48 h
A498 = tested on: A498
A549 = tested on: A549
ACHN = tested on: ACHN
CCRF-CEM = tested on: CCRF-CEM
COLO 205 = tested on: COLO 205
EKVX = tested on: EKVX
HOP-62 = tested on: HOP-62
Hs-578T = tested on: Hs-578T
IGROV-1 = tested on: IGROV-1
MCF7 = tested on: MCF7
MDA-N = tested on: MDA-N
NCI-H23 = tested on: NCI-H23
NCI-H460 = tested on: NCI-H460
OVCAR-3 = tested on: OVCAR-3
SK-MEL-28 = tested on: SK-MEL-28
SK-MEL-2 = tested on: SK-MEL-2
SNB-19 = tested on: SNB-19
SNB-75 = tested on: SNB-75
UO-31 = tested on: UO-31
SR = tested on: SR

SMILES | GI50 (A498) | GI50 (A549) | GI50 (ACHN) | GI50 (CCRF-CEM) | GI50 (COLO 205) | GI50 (EKVX) | GI50 (HOP-62) | GI50 (Hs-578T) | GI50 (IGROV-1) | GI50 (MCF7) | GI50 (MDA-N) | GI50 (NCI-H23) | GI50 (NCI-H460) | GI50 (OVCAR-3) | GI50 (SK-MEL-28) | GI50 (SK-MEL-2) | GI50 (SNB-19) | GI50 (SNB-75) | GI50 (UO-31) | GI50 (SR)
O=C(OCC12CC3CC(CC(C3)C1)C2)c1ccc(NCc2cc(O)ccc2O)cc1 | 3.72 µM (inactive) | 2.67 µM (inactive) | 2.01 µM (inactive) | 0.0547 µM (active) | 0.681 µM (active) | 2.7 µM (inactive) | 4.62 µM (inactive) | 2.14 µM (inactive) | 0.131 µM (active) | 1.08 µM (active) | 2.81 µM (inactive) | 1.47 µM (inactive) | 2.57 µM (inactive) | 0.305 µM (active) | 1.54 µM (inactive) | 2.5 µM (inactive) | 4.33 µM (inactive) | 1.81 µM (inactive) | 0.671 µM (active) | 
O=c1c(Cc2ccccc2Cc2c(O)oc3ccccc3c2=O)c(O)oc2ccccc12 | > 100 µM (inactive) | > 100 µM (inactive) | > 100 µM (inactive) | > 100 µM (inactive) | > 100 µM (inactive) | > 100 µM (inactive) | > 100 µM (inactive) | > 100 µM (inactive) | > 100 µM (inactive) | > 100 µM (inactive) | > 100 µM (inactive) | > 100 µM (inactive) | > 100 µM (inactive) | > 100 µM (inactive) | > 100 µM (inactive) | > 100 µM (inactive) | > 100 µM (inactive) | 31.6 µM (inactive) | > 100 µM (inactive) | 
CCC1CCC2c3c([nH]c4ccccc34)C3C(=O)N(c4ccc(OC)cc4)C(=O)C3C2C1 (centres undefined) |  | 22.2 µM (inactive) | 39.8 µM (inactive) | 11.1 µM (inactive) | 74.1 µM (inactive) | 48.3 µM (inactive) | 54.6 µM (inactive) | 22.2 µM (inactive) | 64.1 µM (inactive) | 36.6 µM (inactive) | 55.7 µM (inactive) | > 100 µM (inactive) | 30.4 µM (inactive) | 22.3 µM (inactive) | 63.8 µM (inactive) |  | 28.3 µM (inactive) | 19.5 µM (inactive) | > 100 µM (inactive) | 16.1 µM (inactive)
Cc1ccc2c(c1)CC1(Cc3c(C)cccc3C1=O)C2=O (centres undefined) | > 100 µM (inactive) | > 100 µM (inactive) | > 100 µM (inactive) | > 100 µM (inactive) | > 100 µM (inactive) | > 100 µM (inactive) | 28.5 µM (inactive) | 22.6 µM (inactive) | > 100 µM (inactive) | > 100 µM (inactive) | > 100 µM (inactive) | > 100 µM (inactive) | > 100 µM (inactive) | > 100 µM (inactive) | > 100 µM (inactive) |  | 37.6 µM (inactive) | 36.7 µM (inactive) | > 100 µM (inactive) | > 100 µM (inactive)
COC(=O)c1c(O)ccc2c1C1(Cc3ccccc3C1=O)C(O)O2 (centres undefined) | > 100 µM (inactive) | 20.6 µM (inactive) | 14.9 µM (inactive) | 2.46 µM (inactive) | 35.6 µM (inactive) | 23.1 µM (inactive) | 13.8 µM (inactive) | 23.3 µM (inactive) | 1.94 µM (inactive) | 12.6 µM (inactive) | 13.7 µM (inactive) | 33.2 µM (inactive) | 8.85 µM (inactive) | 18.6 µM (inactive) | 36.9 µM (inactive) | 28.3 µM (inactive) | 43.4 µM (inactive) |  | 10.1 µM (inactive) | 4.49 µM (inactive)
CC1(C)CC(C#Cc2ccccc2)CC(C)(C)N1O |  | 22.5 µM (inactive) | 25.8 µM (inactive) | 39.8 µM (inactive) | 20.6 µM (inactive) | 23.6 µM (inactive) | 16.4 µM (inactive) | 19 µM (inactive) | 29.9 µM (inactive) | 16.5 µM (inactive) | 15.8 µM (inactive) | 15.7 µM (inactive) | 18.3 µM (inactive) | 15.9 µM (inactive) | 16.6 µM (inactive) | 20.7 µM (inactive) | 30.5 µM (inactive) | 16.9 µM (inactive) | 12.2 µM (inactive) | 52.7 µM (inactive)
CCCNC(=O)Cn1c(C)cc2ccccc21 |  | > 100 µM (inactive) | > 100 µM (inactive) | > 100 µM (inactive) | > 100 µM (inactive) | > 100 µM (inactive) | > 100 µM (inactive) | > 100 µM (inactive) | > 100 µM (inactive) | > 100 µM (inactive) | > 100 µM (inactive) | > 100 µM (inactive) | > 10 µM (inactive) | > 100 µM (inactive) | > 100 µM (inactive) | > 100 µM (inactive) | > 100 µM (inactive) | > 100 µM (inactive) | > 100 µM (inactive) | > 100 µM (inactive)
COP(=O)(CC(=O)C1OC(OCc2ccccc2)C(OCc2ccccc2)C(OCc2ccccc2)C1OCc1ccccc1)OC (centres undefined) |  | 5.57 µM (inactive) | 5.71 µM (inactive) | 4.76 µM (inactive) | 3.78 µM (inactive) | 8.07 µM (inactive) | 20.1 µM (inactive) | 23.9 µM (inactive) | 13.3 µM (inactive) | 4.74 µM (inactive) | 4.27 µM (inactive) | 8.47 µM (inactive) | 4.24 µM (inactive) | 8.87 µM (inactive) | 54 µM (inactive) | 3.22 µM (inactive) | 11.4 µM (inactive) | 7.76 µM (inactive) | 2.94 µM (inactive) | 3.26 µM (inactive)
O=C(NCc1ccccc1Cl)c1c(O)c2ccccc2[nH]c1=O | 15.9 µM (inactive) | 77.8 µM (inactive) | > 10 µM (inactive) | > 100 µM (inactive) | 39.8 µM (inactive) | > 100 µM (inactive) | 19.1 µM (inactive) | 25.9 µM (inactive) | 24.6 µM (inactive) | > 100 µM (inactive) | 79.1 µM (inactive) | > 100 µM (inactive) | 18.7 µM (inactive) | 32 µM (inactive) | > 100 µM (inactive) |  | 39.4 µM (inactive) | 21.6 µM (inactive) | 13.6 µM (inactive) | > 100 µM (inactive)
c1csc(-c2cc(-c3cccs3)c(-c3cccs3)s2)c1 | > 100 µM (inactive) | > 100 µM (inactive) | > 100 µM (inactive) | 35.6 µM (inactive) | 40.6 µM (inactive) | 55.8 µM (inactive) | > 100 µM (inactive) | > 100 µM (inactive) | > 100 µM (inactive) | 18.5 µM (inactive) | 32 µM (inactive) | 96.4 µM (inactive) | 47.2 µM (inactive) | > 100 µM (inactive) | 57.4 µM (inactive) |  | > 100 µM (inactive) | 21.2 µM (inactive) | > 100 µM (inactive) | 51.1 µM (inactive)
COc1cc(C=C2C(C)=NN(c3cccc(Cl)c3)C23C(Cl)C(=O)N3c2nc3ccccc3s2)ccc1O (centres undefined) | 17.9 µM (inactive) |  | 19.2 µM (inactive) | 2.07 µM (inactive) |  | 31.4 µM (inactive) | 20.4 µM (inactive) | 7.36 µM (inactive) | 15.8 µM (inactive) | 28.2 µM (inactive) | 16.3 µM (inactive) | 18.4 µM (inactive) | 25.4 µM (inactive) | 26.4 µM (inactive) | 23.3 µM (inactive) | 17.5 µM (inactive) |  |  | 20.7 µM (inactive) | 0.111 µM (active)
OC1CN=C2c3ccccc3C(O)(c3ccc(Cl)cc3)N2C1 (centres undefined) |  | > 100 µM (inactive) | > 100 µM (inactive) | 36.7 µM (inactive) | 19.5 µM (inactive) | > 100 µM (inactive) | 55.5 µM (inactive) | 88.5 µM (inactive) | 87.9 µM (inactive) | 48.2 µM (inactive) | 35.4 µM (inactive) | 53.3 µM (inactive) | 43.9 µM (inactive) | > 100 µM (inactive) | 49.7 µM (inactive) | > 100 µM (inactive) | 60 µM (inactive) | 19.8 µM (inactive) | 37.4 µM (inactive) | 38.1 µM (inactive)
CCOC(=O)CCc1c(C(=O)OCC)[nH]c(/C=C2/NC(=O)C(C)=C2CC)c1C | 17.1 µM (inactive) | 24.3 µM (inactive) | 11.3 µM (inactive) |  | 14 µM (inactive) |  | 15 µM (inactive) | 25.1 µM (inactive) | 8.38 µM (inactive) | 5 µM (inactive) | 5.83 µM (inactive) | 2.24 µM (inactive) | 32.7 µM (inactive) | 3.88 µM (inactive) | 13.7 µM (inactive) | 18.3 µM (inactive) | 13.1 µM (inactive) | 15.4 µM (inactive) | 2 µM (inactive) | 4.51 µM (inactive)
COc1cc(C[C@H]2C(=O)OC[C@@H]2Cc2ccc(OC)c(OC)c2)cc(OC)c1 |  | 74.8 µM (inactive) | 31.2 µM (inactive) | 25.8 µM (inactive) | 89.3 µM (inactive) | 55.6 µM (inactive) | > 100 µM (inactive) | > 100 µM (inactive) | > 100 µM (inactive) | 34.2 µM (inactive) | 58.5 µM (inactive) | 39.4 µM (inactive) | > 100 µM (inactive) | 59.3 µM (inactive) | 62.2 µM (inactive) | 78.5 µM (inactive) | > 100 µM (inactive) | 40.6 µM (inactive) | 39.6 µM (inactive) | 30.5 µM (inactive)
CC(=O)OCC1OC(Nc2ccc3nc(C)n(-c4ccccc4)c(=O)c3c2)C(OC(C)=O)C(OC(C)=O)C1OC(C)=O (centres undefined) | > 50 µM (inactive) |  | > 50 µM (inactive) |  | > 50 µM (inactive) | > 50 µM (inactive) | > 50 µM (inactive) | > 50 µM (inactive) | > 50 µM (inactive) | > 50 µM (inactive) | > 50 µM (inactive) | > 50 µM (inactive) | 15.5 µM (inactive) | > 50 µM (inactive) | > 50 µM (inactive) | > 50 µM (inactive) | > 50 µM (inactive) | > 50 µM (inactive) | > 50 µM (inactive) | 24.1 µM (inactive)
